SMILES strings stand for the structures. ± gives the expanded uncertainty stated by the source.

Drawing on the NIST ThermoML archive (doi:10.1016/j.jct.2016.08.016), this text covers Normal melting temperature for two compounds.

The conditions of this data set: Crystal; visual observation.

For `CC1=C(NCCc2ccccc2)C(=O)c2ccccc2C1=O` [3-(phenethylamino)-2-methylnaphthalene-1,4-dione], the Normal melting temperature is 92.6 ± 1.6 °C.
As for `CC1=C(NCc2ccccc2)C(=O)c2ccccc2C1=O` [2-(benzylamino)-3-methylnaphthalene-1,4-dione], the figure is 91.7 ± 2.6 °C.
